From ChEMBL document CHEMBL1201862, “PubChem BioAssay data set” (2004)
Active and inactive are the calls of the source.

Key:
[1] = target: T1, Caspase-6 (Homo sapiens, UniProt P55212); test: human caspase-6 inhibitors, dose response, biochemical, VEID-R110 fluorescence, cherry-pick (AID 720632)
T1 sequence (P55212 whole entry): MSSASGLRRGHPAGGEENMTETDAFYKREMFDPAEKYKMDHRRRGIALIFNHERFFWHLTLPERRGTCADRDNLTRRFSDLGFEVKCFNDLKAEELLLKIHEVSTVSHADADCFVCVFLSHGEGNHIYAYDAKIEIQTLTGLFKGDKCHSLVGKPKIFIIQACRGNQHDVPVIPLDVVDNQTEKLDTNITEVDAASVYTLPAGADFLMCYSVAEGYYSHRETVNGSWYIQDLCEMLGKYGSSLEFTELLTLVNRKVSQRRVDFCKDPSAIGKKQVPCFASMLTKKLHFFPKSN

[2] = target: Caspase-9 (Homo sapiens, UniProt P55211); test: caspase-9 enzyme inhibition, dose response, selectivity assay for caspase-6 inhibitor project, biochemical, fluorescence, plate reader, cherry-picked samples (AID 743293)
[3] = target: Caspase-8 (Homo sapiens, UniProt Q14790); test: caspase-8 inhibition counter-screen, dose response, selectivity assay for caspase-6 inhibitor project, biochemical, Z-IETD-R110 fluorescence, cherry-picked samples (AID 743294)
[4] = target: T2, Apoptotic protease-activating factor 1 (Homo sapiens, UniProt O14727); assay type: functional
T2 sequence (O14727 whole entry): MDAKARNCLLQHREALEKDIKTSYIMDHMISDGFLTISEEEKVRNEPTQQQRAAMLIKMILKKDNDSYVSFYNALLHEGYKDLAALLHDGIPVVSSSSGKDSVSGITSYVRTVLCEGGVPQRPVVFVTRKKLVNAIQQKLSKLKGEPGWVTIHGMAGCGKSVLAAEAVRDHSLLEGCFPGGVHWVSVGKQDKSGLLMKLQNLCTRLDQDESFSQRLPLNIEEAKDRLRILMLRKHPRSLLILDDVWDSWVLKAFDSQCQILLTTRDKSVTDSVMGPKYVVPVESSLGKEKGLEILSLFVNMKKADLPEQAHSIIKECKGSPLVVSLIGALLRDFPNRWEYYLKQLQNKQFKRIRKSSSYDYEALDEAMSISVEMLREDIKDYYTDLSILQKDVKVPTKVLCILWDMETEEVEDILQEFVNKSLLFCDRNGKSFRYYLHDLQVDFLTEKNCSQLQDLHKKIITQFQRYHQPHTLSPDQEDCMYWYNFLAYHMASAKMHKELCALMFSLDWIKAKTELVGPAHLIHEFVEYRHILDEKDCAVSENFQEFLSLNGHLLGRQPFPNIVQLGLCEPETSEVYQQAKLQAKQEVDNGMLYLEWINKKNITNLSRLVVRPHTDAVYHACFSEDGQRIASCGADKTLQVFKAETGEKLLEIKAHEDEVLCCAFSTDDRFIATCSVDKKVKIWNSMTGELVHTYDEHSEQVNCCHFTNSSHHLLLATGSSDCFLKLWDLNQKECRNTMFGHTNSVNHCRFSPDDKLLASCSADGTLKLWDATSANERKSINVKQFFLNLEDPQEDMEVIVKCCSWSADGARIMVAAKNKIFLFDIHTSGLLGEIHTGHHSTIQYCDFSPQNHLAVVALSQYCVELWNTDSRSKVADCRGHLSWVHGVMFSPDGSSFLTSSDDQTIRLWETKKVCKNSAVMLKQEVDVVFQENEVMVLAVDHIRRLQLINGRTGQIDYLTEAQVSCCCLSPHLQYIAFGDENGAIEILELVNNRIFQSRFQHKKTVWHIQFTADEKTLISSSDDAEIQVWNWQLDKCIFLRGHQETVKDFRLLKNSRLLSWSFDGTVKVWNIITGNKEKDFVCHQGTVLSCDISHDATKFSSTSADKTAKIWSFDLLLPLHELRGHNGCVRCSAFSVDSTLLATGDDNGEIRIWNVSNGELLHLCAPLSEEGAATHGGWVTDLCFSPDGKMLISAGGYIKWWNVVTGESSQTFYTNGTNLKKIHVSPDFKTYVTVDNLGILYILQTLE

[5] = target: RAC-gamma serine/threonine-protein kinase (Homo sapiens, UniProt Q9Y243); assay type: functional
[6] = target: 5'-AMP-activated protein kinase catalytic subunit alpha-1 (Homo sapiens, UniProt Q13131); assay type: functional
[7] = target: Serine/threonine-protein kinase 17A (Homo sapiens, UniProt Q9UEE5); assay type: functional
[8] = target: Rho-associated protein kinase 2 (Homo sapiens, UniProt O75116); assay type: functional
[9] = target: MAP kinase-activated protein kinase 2 (Homo sapiens, UniProt P49137); assay type: functional;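 note: measured as one member of a kinome-wide kinase panel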
[10] = target: Fibroblast growth factor receptor 1 (Homo sapiens, UniProt P11362); assay type: functional
[11] = target: Testis-specific serine/threonine-protein kinase 1 (Homo sapiens, UniProt Q9BXA7); assay type: functional
[12] = target: Serine/threonine-protein kinase pim-3 (Homo sapiens, UniProt Q86V86); assay type: functional;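 note: value obtained as one member of a broad kinase panel profiling effort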
[13] = target: Non-receptor tyrosine-protein kinase TYK2 (Homo sapiens, UniProt P29597); assay type: functional
[14] = target: Proto-oncogene tyrosine-protein kinase Src (Homo sapiens, UniProt P12931); assay type: functional;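 note: SRC entry within a kinome-wide kinase profiling panel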
[15] = target: Tyrosine-protein kinase Srms (Homo sapiens, UniProt Q9H3Y6); assay type: functional;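 note: SRMS measured as one member of a kinome-wide kinase profiling panel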
[16] = target: Dual specificity tyrosine-phosphorylation-regulated kinase 3 (Homo sapiens, UniProt O43781); assay type: functional;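 note: measured as one member of a broad kinase panel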
[17] = target: Serine/threonine-protein kinase Chk1 (Homo sapiens, UniProt O14757); assay type: functional;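 note: measured as one member of a kinome-wide kinase profiling panel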
[18] = target: Casein kinase I isoform delta (Homo sapiens, UniProt P48730); assay type: functional;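 note: measured as one member (CSNK1D) of a kinome panel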
[19] = target: Protein kinase C iota type (Homo sapiens, UniProt P41743); assay type: functional;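 note: measured within a kinome-wide kinase panel, PRKCI as panel member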
[20] = target: cAMP-dependent protein kinase catalytic subunit PRKX (Homo sapiens, UniProt P51817); assay type: functional
[21] = target: Serine/threonine-protein kinase DCLK1 (Homo sapiens, UniProt O15075); assay type: functional;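 note: affinity for DCLK1 (listed as DCAMKL1) measured as one member of a kinome-wide kinase profiling panel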
[22] = target: BDNF/NT-3 growth factors receptor (Homo sapiens, UniProt Q16620); assay type: functional;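 note: NTRK2 measured as one member of a broad kinome-wide kinase profiling panel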
[23] = target: Polyadenylate-binding protein 1 (Homo sapiens, UniProt P11940); test: PABP1 MLLE–PAM2 binding inhibitor potency, dose response, biochemical, fluorescence polarization, FITC-PAM2 peptide (AID 602259); assay type: functional; conditions: read-out: IC50_Mean

Chain of Fibroblast growth factor receptor 1 (P11362 whole entry): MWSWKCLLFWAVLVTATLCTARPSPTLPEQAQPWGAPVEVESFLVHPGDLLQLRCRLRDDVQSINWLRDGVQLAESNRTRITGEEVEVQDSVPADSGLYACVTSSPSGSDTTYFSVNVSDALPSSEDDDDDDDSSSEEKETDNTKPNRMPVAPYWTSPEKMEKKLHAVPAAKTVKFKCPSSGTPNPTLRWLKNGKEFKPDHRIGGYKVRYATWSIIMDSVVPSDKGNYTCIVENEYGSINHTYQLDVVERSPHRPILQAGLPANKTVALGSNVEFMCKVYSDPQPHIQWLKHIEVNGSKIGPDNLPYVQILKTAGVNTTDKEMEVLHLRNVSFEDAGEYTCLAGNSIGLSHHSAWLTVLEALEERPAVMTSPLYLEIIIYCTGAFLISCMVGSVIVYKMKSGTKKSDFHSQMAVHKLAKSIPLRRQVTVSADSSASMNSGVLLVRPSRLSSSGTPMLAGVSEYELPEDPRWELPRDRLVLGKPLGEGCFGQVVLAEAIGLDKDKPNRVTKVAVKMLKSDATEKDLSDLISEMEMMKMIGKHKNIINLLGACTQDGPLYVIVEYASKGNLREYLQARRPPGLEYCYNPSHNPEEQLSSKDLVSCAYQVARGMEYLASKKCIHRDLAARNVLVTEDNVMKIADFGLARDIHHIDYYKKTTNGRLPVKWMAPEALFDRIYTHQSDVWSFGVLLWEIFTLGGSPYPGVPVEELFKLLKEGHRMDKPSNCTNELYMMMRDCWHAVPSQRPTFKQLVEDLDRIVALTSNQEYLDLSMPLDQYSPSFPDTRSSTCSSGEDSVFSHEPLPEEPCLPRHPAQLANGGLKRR
Chain of Non-receptor tyrosine-protein kinase TYK2 (P29597 whole entry): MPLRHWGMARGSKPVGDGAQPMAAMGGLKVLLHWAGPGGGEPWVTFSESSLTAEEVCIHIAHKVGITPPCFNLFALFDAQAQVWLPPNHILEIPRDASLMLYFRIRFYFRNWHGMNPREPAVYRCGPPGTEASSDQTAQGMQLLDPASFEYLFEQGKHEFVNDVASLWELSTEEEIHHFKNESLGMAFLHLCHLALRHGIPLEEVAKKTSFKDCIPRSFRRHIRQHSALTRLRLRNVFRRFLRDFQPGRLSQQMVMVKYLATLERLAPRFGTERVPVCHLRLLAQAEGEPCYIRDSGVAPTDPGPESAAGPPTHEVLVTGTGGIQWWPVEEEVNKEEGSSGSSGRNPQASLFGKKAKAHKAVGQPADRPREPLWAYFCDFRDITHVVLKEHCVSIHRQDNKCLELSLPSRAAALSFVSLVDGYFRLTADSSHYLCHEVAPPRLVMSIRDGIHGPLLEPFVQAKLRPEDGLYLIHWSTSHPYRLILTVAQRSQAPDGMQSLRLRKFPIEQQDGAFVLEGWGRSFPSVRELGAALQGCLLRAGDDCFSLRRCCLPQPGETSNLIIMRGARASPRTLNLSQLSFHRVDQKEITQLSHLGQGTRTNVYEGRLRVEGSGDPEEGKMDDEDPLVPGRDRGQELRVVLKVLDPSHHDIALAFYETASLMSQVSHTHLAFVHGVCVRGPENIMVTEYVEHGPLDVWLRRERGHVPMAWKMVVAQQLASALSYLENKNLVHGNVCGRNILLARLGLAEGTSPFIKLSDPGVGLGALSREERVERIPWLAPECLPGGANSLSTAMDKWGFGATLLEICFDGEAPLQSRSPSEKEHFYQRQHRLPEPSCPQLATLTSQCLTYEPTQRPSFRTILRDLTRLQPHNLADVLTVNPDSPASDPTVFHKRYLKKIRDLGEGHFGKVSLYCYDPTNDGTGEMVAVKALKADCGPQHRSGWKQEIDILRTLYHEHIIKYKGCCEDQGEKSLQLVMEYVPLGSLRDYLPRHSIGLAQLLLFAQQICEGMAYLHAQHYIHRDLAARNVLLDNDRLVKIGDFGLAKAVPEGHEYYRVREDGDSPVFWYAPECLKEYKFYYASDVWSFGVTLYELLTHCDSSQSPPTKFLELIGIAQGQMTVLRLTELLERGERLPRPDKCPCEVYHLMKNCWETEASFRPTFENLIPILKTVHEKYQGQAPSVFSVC
Chain of Rho-associated protein kinase 2 (O75116 whole entry): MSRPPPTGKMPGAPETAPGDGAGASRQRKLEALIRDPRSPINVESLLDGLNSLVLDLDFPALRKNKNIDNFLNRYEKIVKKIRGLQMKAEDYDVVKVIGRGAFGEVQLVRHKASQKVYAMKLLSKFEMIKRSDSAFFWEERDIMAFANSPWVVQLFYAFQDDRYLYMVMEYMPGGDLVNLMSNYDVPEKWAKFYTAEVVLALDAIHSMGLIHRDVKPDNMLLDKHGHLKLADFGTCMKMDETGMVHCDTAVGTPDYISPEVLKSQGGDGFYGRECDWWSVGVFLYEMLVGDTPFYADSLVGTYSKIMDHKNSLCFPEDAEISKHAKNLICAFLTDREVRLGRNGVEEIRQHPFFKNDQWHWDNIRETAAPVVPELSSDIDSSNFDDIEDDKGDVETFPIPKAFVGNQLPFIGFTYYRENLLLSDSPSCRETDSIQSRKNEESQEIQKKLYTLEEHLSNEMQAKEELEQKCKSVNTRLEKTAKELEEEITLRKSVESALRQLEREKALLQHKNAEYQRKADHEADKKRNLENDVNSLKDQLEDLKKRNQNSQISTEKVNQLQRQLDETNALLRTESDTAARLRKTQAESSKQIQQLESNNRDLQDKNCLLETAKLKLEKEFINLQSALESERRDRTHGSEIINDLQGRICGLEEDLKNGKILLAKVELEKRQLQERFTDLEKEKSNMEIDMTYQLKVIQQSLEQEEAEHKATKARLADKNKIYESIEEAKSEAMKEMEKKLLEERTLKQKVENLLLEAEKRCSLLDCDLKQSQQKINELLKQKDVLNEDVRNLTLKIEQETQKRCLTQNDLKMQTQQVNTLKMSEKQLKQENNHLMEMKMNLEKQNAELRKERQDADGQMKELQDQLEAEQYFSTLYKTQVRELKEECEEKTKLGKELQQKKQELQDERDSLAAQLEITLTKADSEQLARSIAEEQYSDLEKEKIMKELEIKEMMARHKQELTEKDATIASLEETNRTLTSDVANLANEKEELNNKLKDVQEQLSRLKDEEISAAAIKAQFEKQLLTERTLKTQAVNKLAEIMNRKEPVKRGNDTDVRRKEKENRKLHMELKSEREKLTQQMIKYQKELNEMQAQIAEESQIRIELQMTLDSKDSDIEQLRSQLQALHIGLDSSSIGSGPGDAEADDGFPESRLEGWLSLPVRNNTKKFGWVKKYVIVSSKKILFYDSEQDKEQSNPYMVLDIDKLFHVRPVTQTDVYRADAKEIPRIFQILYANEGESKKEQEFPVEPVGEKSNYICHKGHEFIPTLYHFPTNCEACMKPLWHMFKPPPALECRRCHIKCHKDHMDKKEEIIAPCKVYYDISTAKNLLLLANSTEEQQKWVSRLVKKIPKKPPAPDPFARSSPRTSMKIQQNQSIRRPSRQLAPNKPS
Chain of Serine/threonine-protein kinase DCLK1 (O15075 whole entry): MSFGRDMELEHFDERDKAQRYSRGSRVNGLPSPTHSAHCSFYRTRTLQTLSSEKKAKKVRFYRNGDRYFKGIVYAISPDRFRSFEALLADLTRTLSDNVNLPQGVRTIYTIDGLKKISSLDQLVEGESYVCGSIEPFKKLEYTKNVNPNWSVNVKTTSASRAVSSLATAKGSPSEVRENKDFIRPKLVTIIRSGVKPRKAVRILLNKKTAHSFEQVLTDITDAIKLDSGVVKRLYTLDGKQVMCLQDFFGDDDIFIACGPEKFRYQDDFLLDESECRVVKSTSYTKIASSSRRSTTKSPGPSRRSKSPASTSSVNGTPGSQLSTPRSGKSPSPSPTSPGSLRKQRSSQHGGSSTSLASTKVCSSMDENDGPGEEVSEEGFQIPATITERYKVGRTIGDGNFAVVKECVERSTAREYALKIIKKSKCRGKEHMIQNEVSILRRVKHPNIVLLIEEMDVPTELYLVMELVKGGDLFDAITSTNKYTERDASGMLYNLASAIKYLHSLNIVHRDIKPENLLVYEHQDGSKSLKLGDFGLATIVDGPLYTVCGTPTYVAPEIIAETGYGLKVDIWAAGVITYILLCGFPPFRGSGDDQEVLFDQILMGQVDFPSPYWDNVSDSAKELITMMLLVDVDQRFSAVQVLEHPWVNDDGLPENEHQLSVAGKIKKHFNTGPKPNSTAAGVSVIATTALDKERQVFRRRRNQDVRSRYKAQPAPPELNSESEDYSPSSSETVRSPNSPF
Chain of Tyrosine-protein kinase Srms (Q9H3Y6 whole entry): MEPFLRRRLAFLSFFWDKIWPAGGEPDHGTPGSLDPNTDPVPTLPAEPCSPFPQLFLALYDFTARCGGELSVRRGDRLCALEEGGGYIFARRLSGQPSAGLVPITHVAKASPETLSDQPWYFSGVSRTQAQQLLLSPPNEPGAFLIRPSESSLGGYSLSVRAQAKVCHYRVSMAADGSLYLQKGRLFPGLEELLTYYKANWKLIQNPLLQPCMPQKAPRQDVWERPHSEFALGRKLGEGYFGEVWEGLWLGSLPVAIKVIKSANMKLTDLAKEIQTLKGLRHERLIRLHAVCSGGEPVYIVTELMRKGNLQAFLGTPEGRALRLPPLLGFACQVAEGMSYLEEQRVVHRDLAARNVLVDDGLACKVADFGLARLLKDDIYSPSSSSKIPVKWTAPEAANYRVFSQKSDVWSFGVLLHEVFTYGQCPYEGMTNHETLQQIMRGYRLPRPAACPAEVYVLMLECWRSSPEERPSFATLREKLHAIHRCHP
Chain of Caspase-9 (P55211 1-315 limits assumed): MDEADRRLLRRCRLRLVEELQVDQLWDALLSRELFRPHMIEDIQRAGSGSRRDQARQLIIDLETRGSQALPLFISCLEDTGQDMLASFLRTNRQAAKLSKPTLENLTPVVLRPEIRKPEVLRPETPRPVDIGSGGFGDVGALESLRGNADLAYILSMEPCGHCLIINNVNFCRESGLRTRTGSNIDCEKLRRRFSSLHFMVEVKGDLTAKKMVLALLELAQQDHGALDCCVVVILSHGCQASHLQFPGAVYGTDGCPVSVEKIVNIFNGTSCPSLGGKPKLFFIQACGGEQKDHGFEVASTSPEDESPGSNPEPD
Chain of Caspase-9 (P55211 331-416 limits assumed): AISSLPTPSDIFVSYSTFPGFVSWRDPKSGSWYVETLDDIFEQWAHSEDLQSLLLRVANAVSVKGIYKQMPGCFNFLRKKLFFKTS

O=C(COC(=O)c1ccc([N+](=O)[O-])s1)Nc1cccc(S(=O)(=O)/N=C2/CCCCCN2)c1
active: AC50 [1] 4570 nM | AC50 [2] 30200 nM | AC50 [3] 21200 nM

COc1ccc(C(C[N+](=O)[O-])c2c(C)[nH]n(-c3ccccc3)c2=O)cc1 (stereo not drawn)
active: IC50 [4] 14600 nM

Oc1c2ccccc2c2c3c(cccc13)N=N2 [SP-600125]
inactive: Ki [5] > 10000 nM | Ki [6] > 1580 nM | Ki [9] > 7940 nM | Ki [11] > 1580 nM | Ki [14] > 2000 nM | Ki [15] > 1580 nM | Ki [19] > 5010 nM | Ki [20] > 1580 nM | Ki [21] > 10000 nM | IC50 [23] 30900 nM
active: Ki [7] 39.8 nM | Ki [8] 3160 nM | Ki [10] 251 nM | Ki [12] 200 nM | Ki [13] 1260 nM | Ki [16] 316 nM | Ki [17] 1260 nM | Ki [18] 31.6 nM | Ki [22] 794 nM
